Measurements reported in ChEMBL document CHEMBL4190297, “Cafestol, a Bioactive Substance in Coffee, Has Antidiabetic Properties in KKAy Mice” (J Nat Prod, 2017).
Activity calls are given as the source filed them. The rule behind the calls is not given here.

Legend:
[1] = organism: Mus musculus; test: Effect on Acaca mRNA expression levels in liver of KK-Ay diabetic mouse model at 0.4 to 1.1 mg added daily to normal chow pellets for 10 weeks by qRT-PCR analysis; format: functional, organism-based
[2] = organism: Mus musculus; test: Effect on AMPKalpha2 mRNA expression levels in liver of KK-Ay diabetic mouse model at 0.4 to 1.1 mg added daily to normal chow pellets for 10 weeks by qRT-PCR analysis; format: functional, organism-based
[3] = organism: Mus musculus; test: Effect on SOD2 mRNA expression levels in muscle of KK-Ay diabetic mouse model at 0.4 to 1.1 mg added daily to normal chow pellets for 10 weeks by qRT-PCR analysis; format: functional, organism-based
[4] = organism: Mus musculus; test: Toxicity in KK-Ay diabetic mouse model assessed as effect on body weight at 1.1 mg added daily to normal chow pellets for 4 weeks; format: organism-based; conditions: in vivo, po, 672 h
[5] = organism: Mus musculus; test: Effect on GYS2 mRNA expression levels in muscle of KK-Ay diabetic mouse model at 0.4 to 1.1 mg added daily to normal chow pellets for 10 weeks by qRT-PCR analysis; format: functional, organism-based
[6] = organism: Mus musculus; test: Antidiabetic activity in KK-Ay diabetic mouse model assessed as reduction in HOMA-IR levels at 0.4 mg added daily to normal chow pellets for 10 weeks; format: functional, organism-based
[7] = organism: Mus musculus; test: Effect on Hprt1 mRNA expression levels in liver of KK-Ay diabetic mouse model at 0.4 to 1.1 mg added daily to normal chow pellets for 10 weeks by qRT-PCR analysis; format: functional, organism-based
[8] = organism: Mus musculus; test: Toxicity in KK-Ay diabetic mouse model assessed as effect on average 24 hrs food consumption by measured food consumption at 1.1 mg added daily to normal chow pellets for 10 weeks (reference value: 4.7 +/- 0.2 g); format: organism-based; conditions: in vivo, po
[9] = organism: Mus musculus; test: Effect on Pi3K mRNA expression levels in liver of KK-Ay diabetic mouse model at 0.4 to 1.1 mg added daily to normal chow pellets for 10 weeks by qRT-PCR analysis; format: functional, organism-based
[10] = organism: Mus musculus; test: Toxicity in KK-Ay diabetic mouse model assessed as effect on average 24 hrs food consumption by measured food consumption at 0.4 mg added daily to normal chow pellets for 10 weeks (reference value: 4.7 +/- 0.2 g); format: organism-based; conditions: in vivo, po
[11] = organism: Mus musculus; test: Effect on Abca1 mRNA expression levels in muscle of KK-Ay diabetic mouse model at 0.4 to 1.1 mg added daily to normal chow pellets for 10 weeks by qRT-PCR analysis; format: functional, organism-based
[12] = organism: Mus musculus; test: Effect on IRS2 mRNA expression levels in adipose tissue of KK-Ay diabetic mouse model at 0.4 to 1.1 mg added daily to normal chow pellets for 10 weeks by qRT-PCR analysis; format: functional, organism-based
[13] = organism: Mus musculus; test: Toxicity in KK-Ay diabetic mouse model assessed as increase in body weight at 1.1 mg added daily to normal chow pellets for 8 weeks; format: organism-based; conditions: in vivo, po, 1344 h
[14] = organism: Mus musculus; test: Effect on Pi3K mRNA expression levels in adipose tissue of KK-Ay diabetic mouse model at 0.4 to 1.1 mg added daily to normal chow pellets for 10 weeks by qRT-PCR analysis; format: functional, organism-based
[15] = organism: Mus musculus; test: Effect on PPARGC1alpha mRNA expression levels in liver of KK-Ay diabetic mouse model at 0.4 to 1.1 mg added daily to normal chow pellets for 10 weeks by qRT-PCR analysis; format: functional, organism-based
[16] = organism: Mus musculus; test: Effect on CD36 mRNA expression levels in muscle of KK-Ay diabetic mouse model at 0.4 to 1.1 mg added daily to normal chow pellets for 10 weeks by qRT-PCR analysis; format: functional, organism-based
[17] = organism: Mus musculus; test: Effect on Hprt1 mRNA expression levels in muscle of KK-Ay diabetic mouse model at 0.4 to 1.1 mg added daily to normal chow pellets for 10 weeks by qRT-PCR analysis; format: functional, organism-based
[18] = organism: Mus musculus; test: Effect on SOD1 mRNA expression levels in muscle of KK-Ay diabetic mouse model at 0.4 to 1.1 mg added daily to normal chow pellets for 10 weeks by qRT-PCR analysis; format: functional, organism-based
[19] = organism: Mus musculus; test: Effect on 18s rRNA expression levels in liver of KK-Ay diabetic mouse model at 0.4 to 1.1 mg added daily to normal chow pellets for 10 weeks by qRT-PCR analysis; format: functional, organism-based
[20] = organism: Mus musculus; test: Effect on PKCdelta mRNA expression levels in muscle of KK-Ay diabetic mouse model at 0.4 to 1.1 mg added daily to normal chow pellets for 10 weeks by qRT-PCR analysis; format: functional, organism-based
[21] = organism: Mus musculus; test: Effect on SOD1 mRNA expression levels in liver of KK-Ay diabetic mouse model at 0.4 to 1.1 mg added daily to normal chow pellets for 10 weeks by qRT-PCR analysis; format: functional, organism-based
[22] = organism: Mus musculus; test: Effect on PPARgamma mRNA expression levels in muscle of KK-Ay diabetic mouse model at 0.4 to 1.1 mg added daily to normal chow pellets for 10 weeks by qRT-PCR analysis; format: functional, organism-based
[23] = organism: Mus musculus; test: Effect on JNK1 mRNA expression levels in liver of KK-Ay diabetic mouse model at 0.4 to 1.1 mg added daily to normal chow pellets for 10 weeks by qRT-PCR analysis; format: functional, organism-based
[24] = organism: Mus musculus; test: Effect on Sirt1 mRNA expression levels in liver of KK-Ay diabetic mouse model at 0.4 to 1.1 mg added daily to normal chow pellets for 10 weeks by qRT-PCR analysis; format: functional, organism-based
[25] = organism: Mus musculus; test: Effect on G6PD mRNA expression levels in adipose tissue of KK-Ay diabetic mouse model at 0.4 to 1.1 mg added daily to normal chow pellets for 10 weeks by qRT-PCR analysis; format: functional, organism-based
[26] = organism: Mus musculus; test: Effect on GLUT2 mRNA expression levels in muscle of KK-Ay diabetic mouse model at 0.4 to 1.1 mg added daily to normal chow pellets for 10 weeks by qRT-PCR analysis; format: functional, organism-based
[27] = organism: Mus musculus; test: Effect on Abca1 mRNA expression levels in liver of KK-Ay diabetic mouse model at 0.4 to 1.1 mg added daily to normal chow pellets for 10 weeks by qRT-PCR analysis; format: functional, organism-based
[28] = organism: Mus musculus; test: Antidiabetic activity in KK-Ay diabetic mouse model assessed as non-fasting blood glucose level at 0.4 mg added daily to normal chow pellets for 10 weeks (reference value: 26.2 +/- 1.2 mmol/L); format: functional
[29] = organism: Mus musculus; test: Effect on PPARGC1alpha mRNA expression levels in adipose tissue of KK-Ay diabetic mouse model at 0.4 to 1.1 mg added daily to normal chow pellets for 10 weeks by qRT-PCR analysis; format: functional, organism-based
[30] = organism: Mus musculus; test: Effect on SOD1 mRNA expression levels in adipose tissue of KK-Ay diabetic mouse model at 0.4 to 1.1 mg added daily to normal chow pellets for 10 weeks by qRT-PCR analysis; format: functional, organism-based
[31] = organism: Mus musculus; test: Effect on FAS mRNA expression levels in muscle of KK-Ay diabetic mouse model at 0.4 to 1.1 mg added daily to normal chow pellets for 10 weeks by qRT-PCR analysis; format: functional, organism-based
[32] = organism: Mus musculus; test: Effect on Lipc mRNA expression levels in liver of KK-Ay diabetic mouse model at 0.4 to 1.1 mg added daily to normal chow pellets for 10 weeks by qRT-PCR analysis; format: functional, organism-based
[33] = organism: Mus musculus; test: Effect on Adipor1 mRNA expression levels in adipose tissue of KK-Ay diabetic mouse model at 0.4 to 1.1 mg added daily to normal chow pellets for 10 weeks by qRT-PCR analysis; format: functional, organism-based

C[C@@]12CCc3occc3[C@H]1CC[C@@]13C[C@H](CC[C@H]12)[C@@](O)(CO)C3
Activity [1]: inactive | Activity [2]: inactive | Activity [3]: inactive | Activity [4]: Non-Toxic | Activity [5]: inactive | Activity [6]: inactive | Activity [7]: inactive | Activity [8]: 5.9 g | Activity [9]: inactive | Activity [10]: 5.4 g | Activity [11]: inactive | Activity [12]: inactive | Activity [13]: > 3 g | Activity [14]: inactive | Activity [15]: inactive | Activity [16]: inactive | Activity [17]: inactive | Activity [18]: inactive | Activity [19]: inactive | Activity [20]: inactive | Activity [21]: inactive | Activity [22]: inactive | Activity [23]: inactive | Activity [24]: inactive | Activity [25]: inactive | Activity [26]: inactive | Activity [27]: inactive | Activity [28]: 17.3 mmol/L | Activity [29]: inactive | Activity [30]: inactive | Activity [31]: inactive | Activity [32]: inactive | Activity [33]: inactive
